Format in all cases: functional
Assay [1] relates to PBMC. The assay is described as follows: Inhibition of LPS-induced TNFalpha production in human PBMC at 0.3 mg/mL after 48 hrs by ELISA.
Assay [2] relates to PBMC. The assay is described as follows: Inhibition of LPS-induced IL10 production in human PBMC at 0.3 mg/mL after 48 hrs by ELISA.
Assay [3] has as its system PBMC. In words: Inhibition of LPS-induced IL12 production in human PBMC at 0.3 mg/mL after 48 hrs by ELISA.

Data on one compound can be found in ChEMBL document CHEMBL1158727, “Cyclobutane dimers from the Colombian medicinal plant Achyrocline bogotensis” (2005).

For `C[C@]12C=CC(=O)C=C1CC[C@@H]1[C@@H]2[C@@H](O)C[C@@]2(C)[C@H]1CC[C@]2(O)C(=O)CO` [PREDNISOLONE], the inhibition at 300 µg/mL in the assay with PBMC [1] was 0.44%; in the assay with PBMC [2] it was 0.14%; in the assay with PBMC [3], 0.24%.
